Measurements taken from BindingDB's records for doi:10.1021/jm040794i (2005).

Columns and labels:
[1] = target: Somatostatin receptor type 5 (Homo sapiens, UniProt P35346); assay: In vitro inhibition of [125I][Leu8,D-Trp22,Tyr25] somatostatin 28 binding to human somatostatin receptor type 5 expressed in CHO-K1 cells; (n=3)
[2] = target: Somatostatin receptor type 1 (Homo sapiens, UniProt P30872); assay: In vitro inhibition of [125I][Leu8,D-Trp22,Tyr25] somatostatin 28 binding to human somatostatin receptor type 1 expressed in CHO-K1 cells; (n=3)
Somatostatin receptor type 1, sequence (P30872 whole entry): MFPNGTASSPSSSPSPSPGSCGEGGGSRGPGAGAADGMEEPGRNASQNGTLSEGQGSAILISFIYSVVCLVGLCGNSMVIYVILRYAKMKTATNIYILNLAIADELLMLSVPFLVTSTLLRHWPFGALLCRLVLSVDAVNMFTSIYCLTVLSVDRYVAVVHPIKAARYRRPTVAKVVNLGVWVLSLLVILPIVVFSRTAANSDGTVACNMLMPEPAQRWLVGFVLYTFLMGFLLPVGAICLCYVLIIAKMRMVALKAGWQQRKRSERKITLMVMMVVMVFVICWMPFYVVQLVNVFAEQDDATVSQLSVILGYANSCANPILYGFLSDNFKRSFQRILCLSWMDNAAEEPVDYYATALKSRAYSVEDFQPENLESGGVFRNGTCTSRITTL

Somatostatin receptor type 5, sequence (P35346 whole entry): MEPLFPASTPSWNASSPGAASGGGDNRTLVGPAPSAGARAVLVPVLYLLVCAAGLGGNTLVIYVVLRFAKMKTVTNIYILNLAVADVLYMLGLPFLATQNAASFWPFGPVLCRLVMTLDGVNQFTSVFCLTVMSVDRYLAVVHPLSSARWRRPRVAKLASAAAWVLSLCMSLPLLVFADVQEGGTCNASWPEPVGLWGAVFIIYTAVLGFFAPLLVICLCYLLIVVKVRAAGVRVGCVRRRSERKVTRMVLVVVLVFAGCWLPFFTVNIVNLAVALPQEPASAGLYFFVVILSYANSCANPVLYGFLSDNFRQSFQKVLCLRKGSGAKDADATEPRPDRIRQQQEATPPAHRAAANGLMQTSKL

IC50 [1]	IC50 [2]	SMILES
377 nM	–	C[C@@H](O)[C@H](NC(=O)[C@@H]1CSSC[C@H](NC(=O)[C@@H](Cc2ccccc2)NC(=O)CN2CCN(CC(=O)O)CCN(CC(=O)O)CCN(CC(=O)O)CC2)C(=O)N[C@@H](Cc2ccc(O)cc2)C(=O)N[C@H](Cc2c[nH]c3ccccc23)C(=O)N[C@@H](CCCCN)C(=O)N[C@@H]([C@@H](C)O)C(=O)N1)C(=O)O
–	> 10000 nM	C[C@@H](O)[C@H](NC(=O)[C@@H]1CSSC[C@H](NC(=O)[C@H](N)Cc2ccccc2)C(=O)N[C@@H](Cc2ccc(O)c(I)c2)C(=O)N[C@H](Cc2c[nH]c3ccccc23)C(=O)N[C@@H](CCCCN)C(=O)N[C@@H]([C@@H](C)O)C(=O)N1)C(=O)O [4-[(4R,7S,10S,13R,16S)-19-(2-azaniumyl-3-phenylpropanamido)-4-{[(1S)-1-carboxy-2-hydroxypropyl]carbamoyl}-16-[(4-hydroxy-3-iodophenyl)methyl]-7-(1-hydroxyethyl)-13-(1H-indol-3-ylmethyl)-6,9,12,15,18-pentaoxo-1,2-dithia-5,8,11,14,17-pentaazacycloicosan-10-yl]butan-1-aminium]
